Paper PMC5571359, “Screening the Medicines for Malaria Venture Pathogen Box across Multiple Pathogens Reclassifies Starting Points for Open-Source Drug Discovery” (Antimicrobial Agents and Chemotherapy, 2017)
Like-named read-outs stand apart in the source and are kept apart here.

What was measured:
P. falciparum ABS = details: cited from earlier work; for EC50: ChEMBL Data; for IC50: read-out: Pf 3D7 Pbox IC50
HepG2 = details: cited from earlier work
liver stage = details: cited from earlier work
[1] = system: Plasmodium falciparum 3D7 asexual blood stage; assay: microbe, parasite or virus in culture
HEK293 cells = assay: HEK293 resazurin cell cytotoxicity assay; details: Homo sapiens
[2] = system: NF54-pfs16-LUC-GFP stage IV gametocytes; assay: Plasmodium falciparum late stage gametocyte (LSG) image-based assay; format: cell-based; details: Plasmodium falciparum
[3] = system: T. cruzi C4 β-galactosidase reporter parasite in MRC 5SV2 host cells; details: ref Pbox supporting information; read-out: T. cruzi Pbox IC50; cited from earlier work
[4] = system: T. cruzi intracellular amastigotes; assay: Intracellular anti-Trypanosoma cruzi image-based assay (amastigotes); format: cell-based; details: Trypanosoma cruzi; PBox compounds, intracellular amastigotes, 48 h exposure; read-out: IC50 T. cruzi (Discovery Biology)
[5] = system: T. b. brucei 427 bloodstream trypanosomes; assay: T. b. brucei resazurin viability assay; format: cell-based, Trypanosoma brucei brucei; details: Trypanosoma brucei; read-out: T b.brucei Discovery Biology IC50
[6] = system: L. donovani MHOM/IN/80/DD8 intracellular amastigotes; assay: Leishmania donovani intracellular amastigote assay in THP-1 cells; format: cell-based; details: Leishmania donovani, THP-1; Discovery Biology; some values carry an asterisk (not explained in the part shown); read-out: L, donovani Discovery Biology IC50 µM
[7] = P. falciparum, read-out: TCMDC (ref 93) EX50
[8] = P. falciparum 3D7, ref PBox supporting information
[9] = read-out: HepG2 PBox CC50 µM, ref PBox supporting information
[10] = ref Pbox supporting information
[11] = TCMDC, read-out: TCMDC (ref 93) EX50
[12] = Pf 3D7, ref Pathogen Box supporting information
[13] = read-out: HepG2 PBox CC50 µM, HepG2 CC50, ref Pathogen Box supporting information
[14] = liver stage, ref Pathogen Box supporting information, read-out: LIVER STAGE Pbox IC50
[15] = 3D7, read-out: Pf 3D7 Discovery Biology IC50 µM, P. falciparum 3D7 asexual blood stage, Discovery Biology
[16] = read-out: HepG2 PBox CC50 µM, HepG2 cytotoxicity, ref PBox supporting information
[17] = HEK293, read-out: HEK % Inhibition 20uM/IC50 Discovery Biology
[18] = HEK293, read-out: HEK % Inhibition 20uM/IC50 Discovery Biology (IA)
[19] = 3D7, read-out: Antiplasmodial IC50 (ABS), PBox compounds, P. falciparum 3D7
[20] = NF54, read-out: Antiplasmodial IC50 (GAM / LSG), PBox compounds, stage IV gametocytes, single determination
[21] = 3D7, read-out: activity against P. falciparum (novel antiplasmodial actives of the tuberculosis set)

Structure (SMILES): C[C@H](C(N)=O)N1CCCC[C@H]1c1ccc(OCc2cccc(F)c2)cc1 [MMV676269]
- EC50 (P. falciparum ABS; [7]): 0.99 µM
- IC50 (P. falciparum ABS; [8]): > 2 µM
- CC50 (HepG2; [9]): > 10 µM
- IC50 (liver stage; [10]): 1.36 µM

Structure (SMILES): Cc1cc(C)n2nc(C(=O)Nc3cc(C(F)(F)F)ccc3N3CCOCC3)nc2n1 [MMV019087]
- EC50 (P. falciparum ABS; [11]): 0.12 µM
- IC50 (P. falciparum ABS; [12]): 0.22 µM
- CC50 (HepG2; [13]): > 10 µM
- IC50 (liver stage; [14]): 1.21 µM

Structure (SMILES): FC(F)(F)c1cccc(-c2nc3c(NCc4ccncc4)nccc3[nH]2)c1 [MMV032967]
- IC50 (P. falciparum ABS; [8]): 0.51 µM
- CC50 (HepG2; [9]): > 10 µM
- IC50 (liver stage; [10]): > 10 µM

Structure (SMILES): COc1cccc(-c2cc3c(Nc4cccnc4)nccc3[nH]2)c1 [MMV392832]
- IC50 (P. falciparum ABS; [8]): 1.28 µM
- CC50 (HepG2; [9]): > 10 µM
- IC50 (liver stage; [10]): > 10 µM

Structure (SMILES): Cc1cccc(NC(=O)c2cc(S(=O)(=O)N(C)c3ccc(F)cc3)ccc2Cl)n1 [MMV676528]
- IC50 (P. falciparum ABS; [8]): 1.58 µM
- CC50 (HepG2; [9]): > 10 µM
- IC50 (liver stage; [10]): 6.77 µM

Structure (SMILES): O=C(Nc1ccc(N2CCNCC2)nc1)c1oc(-c2ccccc2)nc1C(F)(F)F [MMV024937]
- EC50 (P. falciparum ABS; [11]): 0.98 µM
- IC50 (P. falciparum ABS; [12]): 1.22 µM
- CC50 (HepG2; [13]): > 10 µM
- IC50 (liver stage; [14]): 2.55 µM

Structure (SMILES): CN1CCN(CCCOc2ncc(Nc3ncc(-c4ccc(C(F)(F)F)c(F)c4)nc3C(N)=O)cn2)CC1 [MMV687812]
- IC50 [1, 15]: 1.6 µM
- CC50 (HepG2; [16]): 3.9 µM
- inhibition at 20 µM (HEK293 cells; [17]): 100%

Structure (SMILES): Nc1ncc(Br)cc1-c1nc2cc(Cl)cnc2[nH]1 [MMV676358]
- IC50 (P. falciparum ABS; [8]): 1.5 µM
- IC50 (HEK293 cells; [18]): > 20 µM

Structure (SMILES): Cn1c(=O)c2c(S(C)(=O)=O)snc2n(C)c1=O [MMV687251]
- CC50 (HepG2; [16]): 1.1 µM
- inhibition at 20 µM (HEK293 cells; [17]): 100%

Structure (SMILES): Cc1cccc(-c2nc(Nc3ccncn3)c3sccc3n2)n1 [MMV688122]
- IC50 [1, 19]: 2.11 µM
- CC50 (HepG2; [16]): 14.3 µM
- IC50 [2, 20]: 0.11 µM

Structure (SMILES): Cc1cc(C(=O)Nc2cnn(Cc3ccc(Cl)cc3Cl)c2)no1 [MMV009054]
- EC50 (P. falciparum ABS; NITD, read-out: NITD (ref 94) EC50): 0.62 µM
- IC50 (P. falciparum ABS; [12]): 1.88 µM
- CC50 (HepG2; [13]): > 10 µM
- IC50 (liver stage; [14]): 1.39 µM

Structure (SMILES): C[C@]1(O)C[C@@H](c2nc(-c3ccc4ccc(-c5ccccc5)nc4c3)c3c(N)nccn32)C1 [MMV676605]
- IC50 (P. falciparum ABS; [8]): > 2 µM
- CC50 (HepG2): > 10 µM
- IC50 (liver stage; [10]): 0.36 µM

Structure (SMILES): CCC(Sc1nc2ccccc2o1)C(=O)Nc1nccs1 (stereo not shown) [MMV676383]
- IC50 [1, 19]: 4.43 µM
- IC50 [1, 21]: 4 to 5 µM
- CC50 (HepG2; [16]): 13 µM
- inhibition at 20 µM (HEK293 cells; [17]): 88%
- IC50 [2, 20]: 1.37 µM

Structure (SMILES): CNc1cc(C)nc(C2CN(C(=O)c3n[nH]c4ccccc34)CCO2)c1 (stereo not shown) [MMV689709]
- IC50 [3]: 3.89 µM
- IC50 [4]: 3.32 µM
- IC50 (HEK293 cells; [17]): > 20 µM

Structure (SMILES): CO/C=C(/C(=O)OC)c1ccccc1Oc1cc(Oc2ccccc2C#N)ncn1 [MMV021057]
- IC50 (P. falciparum ABS; [12]): 0.0536 µM
- IC50 ([1]; 3D7, read-out: Antiplasmodial IC50 (ABS)): 0.04 µM
- IC50 ([1]; 3D7, read-out: Pf 3D7 Discovery Biology IC50 µM): 0.035 µM
- inhibition at 20 µM (HEK293 cells; [17]): 71%
- IC50 [2, 20]: 0.03 µM

Structure (SMILES): c1ccc(-c2[nH]c3ccccc3c2C(c2ccccn2)N2CCCC2)cc1 (stereo not shown) [MMV688762]
- HepG2 PBox CC20 μMc (HepG2; [10]): 1 µM
- IC50 (HEK293 cells; [18]): > 20 µM
- IC50 ([2]; NF54, read-out: Pf Stage IV GAMS Discovery Biology IC50 µM, stage IV gametocytes): 3.16 µM

Structure (SMILES): COc1ccc(-c2nn(C(C)C)c3ncnc(N)c23)cc1OC [MMV675993]
- IC50 ([1]; 3D7, read-out: Pf 3D7 Discovery Biology IC50, P. falciparum 3D7 asexual blood stage): 1.07 µM
- HepG2 PBox CC20 (HepG2; HepG2, ref PBox supporting information): 1.6 µM
- inhibition at 20 µM (HEK293 cells; [17]): 73%
- IC50 ([2]; NF54, read-out: Pf Stage IV GAMS Discovery Biology IC50, stage IV gametocytes): 1.95 µM

Structure (SMILES): O=C(Nc1ccc(C(F)(F)F)c(C(F)(F)F)c1)c1cc(Cl)ccc1O [MMV687807]
- IC50 [1, 15]: 1.82 µM
- CC50 (HepG2; [16]): 0.65 µM
- IC50 (HEK293 cells; HEK293, read-out: HEK % Discovery Biology IC50 uM): 1.99 µM
- IC50 [5]: 0.66 µM
- IC50 ([2]; NF54, read-out: Pf Stage IV GAMS Discovery Biology IC50 µM, stage IV gametocytes, Discovery Biology): 5.07 µM
- IC50 [6]: 5.06 µM

Structure (SMILES): COc1cccc(-c2nc3c(N4CCCC4)cccc3n2CC2CCCN2)n1 (stereo not shown) [MMV687703]
- IC50 [1, 19]: 1.33 µM
- IC50 [1, 21]: < 2 µM
- CC50 (HepG2; [16]): 25 µM
- inhibition at 20 µM (HEK293 cells; [17]): 76%
- IC50 [2, 20]: 3.83 µM

Structure (SMILES): O=C(NCCc1ccccc1)c1cc(-c2cccnc2)cnc1NCC1CC1 [MMV026490]
- EC50 (P. falciparum ABS; [7]): 0.85 µM
- IC50 (P. falciparum ABS; [8]): 1.29 µM
- IC50 (HEK293 cells; [18]): > 20 µM
- IC50 [5]: 6.02 µM
